Measurements taken from patent US20220281848A1, “PYRAZOLE-SUBSTITUTED PYRROLIDINONES AS HERBICIDES” (FMC Corporation, priority 2019, published 2022).

Columns and labels:
Type in all cases: in vivo
wheat = assay: Test D post-emergence, wheat seed treated with a herbicide safener; conditions: "Cereals" Postemergent
Method: (§1) A formulation containing 50 g/L of the test chemical was prepared by dissolving the active ingredient in a mixture of organic solvents and emulsifier, details of which are provided in the table. This formulation was then mixed with a small, variable amount of acetone to aid dissolution, before addition of a 0.2% v/v aqueous solution of an adjuvant, as the aqueous diluent, to form an aqueous spray solution which contains a predetermined concentration of the active ingredient.
(§2) This aqueous spray solution was then sprayed onto plants including maize and wheat that had been seed treated with a herbicide safener, after one day's cultivation (for pre-emergence) or after about 12 days' cultivation (for post-emergence). The plants were grown from seeds sown in standard soil, placed in a glasshouse under controlled conditions (at 24/18° C. or 20/16° C., day/night; 16 h light; 65% humidity). After spray application the plants were then grown in a glasshouse under the same conditions and watered twice daily. After 15 d for post-emergence and 20 DAA for pre-emergence the test was evaluated (100=total damage to plant; 0=no damage to plant).

[1] = test system: ivy-leaved morning glory (Ipomoea hederacea, IPOHE); assay: Test A pre-emergence, ivy-leaved morning glory; conditions: after 13 d
In short: (§3)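 Each compound is applied pre-emergence at 15.625, 62.5 or 250 g/ha, one day after seeds are sown in standard soil. Plants are then grown in a glasshouse at 24/16° C. with 14 h light and 65% humidity, and injury is scored 0–100 at 13 d.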

corn (Zea mays, ZEAMX) = assay: Test A post-emergence, corn; conditions: after 13 d
In short: (§4)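 Visual damage at 13 d after treatment, rated from 0 (no damage) to 100 (total damage). Eight-day-old pot-grown plants had been sprayed with 15.625, 62.5 or 250 g/ha of compound in aqueous acetone (50:50) containing 0.5% Tween 20.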

[2] = test system: giant foxtail (Setaria faberi, SETFA); assay: Test A post-emergence, giant foxtail; conditions: after 13 d
In short: as §4

[3] = test system: redroot pigweed (Amaranthus retroflexus, AMARE); assay: Test A pre-emergence, redroot pigweed; conditions: after 13 d
In short: as §3

maize = assay: Test D pre-emergence, maize seed treated with a herbicide safener; conditions: ZEAMX, preemergent, 20 DAA
Method: as §1, §2

[4] = test system: barnyardgrass (Echinochloa crus-galli, ECHCG); assay: Test A pre-emergence, barnyardgrass; conditions: after 13 d
In short: as §3

[5] = Rates 130, evaluated after 15 d
[6] = Rates 250, evaluated after 15 d
[7] = Rates 500, evaluated after 15 d

Compound	TRZAW damage rating (100=total damage to plant; 0=no damage to plant) (wheat; [5])	TRZAW damage rating (100=total damage to plant; 0=no damage to plant) (wheat; [6])	TRZAW damage rating (100=total damage to plant; 0=no damage to plant) (wheat; [7])	damage to plant (100=total damage; 0=no damage) IPOHE ([1]; Pre-Emergence at 15.625 g/ha)	damage to plant (100=total damage; 0=no damage) IPOHE ([1]; Pre-Emergence at 62.5 g/ha)	damage to plant (100=total damage; 0=no damage) IPOHE ([1]; Pre-Emergence at 250 g/ha)	damage to plant (100=total damage; 0=no damage) ZEAMX (corn (Zea mays, ZEAMX); Post-Emergence at 62.5 g/ha)	damage to plant (100=total damage; 0=no damage) ZEAMX (corn (Zea mays, ZEAMX); Post-Emergence at 250 g/ha)	damage to plant (100=total damage; 0=no damage) SETFA ([2]; Post-Emergence at 62.5 g/ha)	damage to plant (100=total damage; 0=no damage) SETFA ([2]; Post-Emergence at 250 g/ha)	damage to plant (100=total damage; 0=no damage) AMARE ([3]; Pre-Emergence at 62.5 g/ha)	damage to plant (100=total damage; 0=no damage) AMARE ([3]; Pre-Emergence at 250 g/ha)	damage to plant (100=total damage to plant; 0=no damage to plant), ZEAMX (maize; rate 15)	damage to plant (100=total damage to plant; 0=no damage to plant), ZEAMX (maize; rate 30)	damage to plant (100=total damage to plant; 0=no damage to plant), ZEAMX (maize; rate 60)	damage to plant (100=total damage to plant; 0=no damage to plant), ZEAMX (maize; rate 130)	damage to plant (100=total damage to plant; 0=no damage to plant), ZEAMX (maize; rate 250)	damage to plant (100=total damage to plant; 0=no damage to plant), ZEAMX (maize; rate 500)	damage to plant (100=total damage; 0=no damage) ECHCG ([4]; Pre-Emergence at 62.5 g/ha)	damage to plant (100=total damage; 0=no damage) ECHCG ([4]; Pre-Emergence at 250 g/ha)	other results
CN1CC(c2cc(C(F)(F)F)n(C)n2)C(C(=O)Nc2ccc(F)c(F)c2F)C1=O (racemic) [Compound 17]	0	40	70	0	0	20	50	80	70	80	10	20	0	0	0	0	10	30	100	100	damage to plant (100=total damage; 0=no damage) ZEAMX (corn (Zea mays, ZEAMX); Post-Emergence at 15.625 g/ha): 10; damage to plant (100=total damage; 0=no damage) SETFA ([2]; Post-Emergence at 15.625 g/ha): 60; damage to plant (100=total damage; 0=no damage) AMARE ([3]; Pre-Emergence at 15.625 g/ha): 0; damage to plant (100=total damage; 0=no damage) ECHCG ([4]; Pre-Emergence at 15.625 g/ha): 90
CN1CC(c2cc(C(F)(F)F)n(C)n2)C(C(=O)Nc2ccc(F)cc2F)C1=O (racemic) [Compound 6]	0	10	20	0	0	10	20	60	70	70	20	50	0	0	0	0	0	0	90	90	damage to plant (100=total damage; 0=no damage) ZEAMX (corn (Zea mays, ZEAMX); Post-Emergence at 15.625 g/ha): 10; damage to plant (100=total damage; 0=no damage) SETFA ([2]; Post-Emergence at 15.625 g/ha): 0; damage to plant (100=total damage; 0=no damage) AMARE ([3]; Pre-Emergence at 15.625 g/ha): 20; damage to plant (100=total damage; 0=no damage) ECHCG ([4]; Pre-Emergence at 15.625 g/ha): 80
CN1CC(c2cc(C(F)(F)F)n(C)n2)C(C(=O)Nc2ccc(F)cc2C(C)(F)F)C1=O (racemic) [Compound 26]	0	0	40		30	70	60	80	80	90	0	0	0	0	0	0	0	0	90	90	
COc1c(F)cccc1NC(=O)C1C(=O)N(C)CC1c1cc(C(F)(F)F)n(C)n1 (racemic) [Compound 18]	0	10	40	10	10	20	30	80	70	70	0	0	0	0	0	0	0	0	90	90	damage to plant (100=total damage; 0=no damage) ZEAMX (corn (Zea mays, ZEAMX); Post-Emergence at 15.625 g/ha): 0; damage to plant (100=total damage; 0=no damage) SETFA ([2]; Post-Emergence at 15.625 g/ha): 50; damage to plant (100=total damage; 0=no damage) AMARE ([3]; Pre-Emergence at 15.625 g/ha): 0; damage to plant (100=total damage; 0=no damage) ECHCG ([4]; Pre-Emergence at 15.625 g/ha): 90
CN1CC(c2cc(C(F)(F)F)n(C)n2)C(C(=O)Nc2cccc(F)c2C(F)(F)F)C1=O (racemic) [Compound 19]	0	0	20	0	0	10	0	10	70	80	0	0	0	0	0	0	0	0	90	90	damage to plant (100=total damage; 0=no damage) ZEAMX (corn (Zea mays, ZEAMX); Post-Emergence at 15.625 g/ha): 0; damage to plant (100=total damage; 0=no damage) SETFA ([2]; Post-Emergence at 15.625 g/ha): 70; damage to plant (100=total damage; 0=no damage) AMARE ([3]; Pre-Emergence at 15.625 g/ha): 0; damage to plant (100=total damage; 0=no damage) ECHCG ([4]; Pre-Emergence at 15.625 g/ha): 70
CCn1nc([C@@H]2CN(C)C(=O)[C@H]2C(=O)Nc2cccc(F)c2F)c2cccc(F)c21 [Compound 14]	10	70	80	30	40	70	70	80	80	90	0	0	0	0	0	10	20	50	80	90	damage to plant (100=total damage; 0=no damage) ZEAMX (corn (Zea mays, ZEAMX); Post-Emergence at 15.625 g/ha): 70; damage to plant (100=total damage; 0=no damage) SETFA ([2]; Post-Emergence at 15.625 g/ha): 80; damage to plant (100=total damage; 0=no damage) AMARE ([3]; Pre-Emergence at 15.625 g/ha): 0; damage to plant (100=total damage; 0=no damage) ECHCG ([4]; Pre-Emergence at 15.625 g/ha): 60
